Assay results published in article PMC10602545, “Retinal Microenvironment‐Protected Rhein‐GFFYE Nanofibers Attenuate Retinal Ischemia‐Reperfusion Injury via Inhibiting Oxidative Stress and Regulating Microglial/Macrophage M1/M2 Polarization” (Advanced Science, 2023).
Peptide text beside a SMILES is read from it. * marks the point of attachment. X1 = O=C1c2cccc(O)c2C(=O)c2c(O)cc(C(=O)*)cc21

What was measured:
[1] = In vivo safety evaluation after intravitreal injection; parameters: species or system rat
From the text: For safety evaluation, rats were intravitreally injected Rh‐GFFYE nanofibers. 7 days after injection, ERG was used to detect the retinal function and H&E staining was used to detect the morphology of retina. Orbital blood was taken to detect the contents of ALT and AST in plasma. The major organs (heart, liver, spleen, lung, kidney) were harvested for H&E staining to observe changes in each major organ.

[2] = In vivo retinal distribution by CLSM (Cy5.5 label); parameters: species or system rat
From the text: To evaluate the distribution of Rh‐GFFYE in RIR‐injured and normal retinas, rats were divided into two groups. At 3, 7, 14, and 21 days after a single intravitreal injection of Cy5.5‐Rh‐GFFYE, the rats were killed and retinas were obtained. Retinal cryosections and retinal whole flat mounts were examined by CLSM to observe the distribution of Rh‐GFFYE in vivo.

[3] = test system: rat model of RIR injury; conditions: in vivo
Experimental: Prior to establishing the model, each anesthetized rat was administered with 0.3% ofloxacin eye drops. Topyramide eye solution was used to dilate the pupil, and proparacaine hydrochloride was used as an eye anesthetic. A 30‐gauge needle containing a balanced salt solution was cannulated into the anterior chamber. […] The sham operation, which served as the control, was performed without elevating the IOP. After 60 min, the needle was withdrawn, the IOP was normal, the posterior segment was pale, and the blood supply was restored, confirming the successful establishment of the RIR injury model. […] During the experiment, each animal's body temperature was kept between 36.5 and 37°C.
At 24 h after establishing the RIR injury model, the rats were randomly divided into five groups: Sham, Saline, Rh‐GFFYE, Ac‐GFFYE, and Nap‐GFFYE. The methods for anesthesia and pupil dilation were the same as described above. Intravitreal injection was accomplished using a Hamilton syringe, and 4 µL of Rh‐GFFYE was injected to obtain a final rhein concentration of 20 µM in the vitreous humor.^[ [58] ^]
Before ERG recording, all the rats were randomly divided into five groups (Sham, Saline, Nap‐GFFYE, Ac‐GFFYE, and Rh‐GFFYE) and adapted in the dark for 12 h. […] For scotopic ERG, the responses to white flashes of 3.00 cd∙s∙m^−2 were recorded. […]

[4] = Concentration of rhein in retinas by UPLC-MS/MS; format: in vivo, rat
Experimental: To further evaluate the concentration of rhein in retinas, the retinas were collected at 7 and 21 days after a single intravitreal injection of Rh‐GFFYE. The retinas were homogenized using a cryogenic homogenizer (ServiceBio, Wuhan, China), and the supernatants were collected after centrifugation for further analysis. The samples were suspended in ethyl acetate and centrifuged for 5 min to obtain the supernatants which were then dried under nitrogen gas flow. The residues were dissolved with mobile phase solution and then quantified using the UPLC‐MS/MS (AB Sciex Triple Quad TM 4500 system, MA, USA) assay.

[5] = test system: R28 cells; assay: Safety evaluation under normoxic conditions (ATP and LDH); format: cell-based; conditions: 24 h
Experimental: (§1) The retinal precursor cell line R28 was purchased from Kerafast (Boston, MA, USA) and cultured according to the procedures recommended by the supplier. Briefly, the cells were grown and maintained in DMEM complete medium containing 420 mL DMEM, 15 mL sodium bicarbonate (Sigma‐Aldrich, St. Louis, MO, USA), 50 mL calf serum, 5 mL MEM non‐essential amino acids, 5 mL L‐glutamine (GIBCO, Grand Island, NY, USA), and 0.625 mL Gentamicin (80 mg mL^−1; Solarbio Life Sciences Co., Ltd, Beijing, China) at 37 °C in a humidified atmosphere containing 5% CO2. The stock solutions of Rh‐GFFYE and control compounds were diluted to varying concentrations with DMEM complete medium just before cell treatment.
An in vitro OGD model was constructed based on the method detailed by Ryou et al.^[ [56] ^] Briefly, R28 cells were cultured in a glucose‐free medium and subjected to hypoxia (1% O2, 5% CO2) for 24 h. The cells were then re‐oxygenated (21% O2, 5% CO2) for 6 h to simulate RIR. The ATP levels were measured using a CellTiter‐Lumi Plus luminescent cell viability assay (Beyotime, Beijing, China). The cell membrane integrity of the R28 cells was evaluated by LDH release assay (Beyotime, Beijing, China).

[6] = pH between 8.0 and 9.4; cited from earlier work
From the text: Herb‐derived natural products are regarded as promising drug resources due to their anti‐inflammatory and antioxidant effects.^[ [11] ^] Rhein (4,5‐dihydroxyanthraquinone‐2‐carboxylic acid), is an anthraquinone and one of the pharmacologically active components extracted from Rheum.^[ [12] ^] […] Due to its good anti‐apoptotic and anti‐inflammatory effects, rhein has also been used to treat ischemia/reperfus ...

[7] = test system: R28 cells; assay: In vitro OGD model, cellular ATP content (CellTiter-Lumi Plus); format: cell-based; conditions: 24 h pretreatment, varying concentrations (Rh-GFFYE 10, 20, 40 µM); n = 3
Experimental: as §1
An in vitro OGD model was constructed based on the method detailed by Ryou et al.^[ [56] ^] Briefly, R28 cells were cultured in a glucose‐free medium and subjected to hypoxia (1% O2, 5% CO2) for 24 h. […] The ATP levels were measured using a CellTiter‐Lumi Plus luminescent cell viability assay (Beyotime, Beijing, China). The cell membrane integrity of the R28 cells was evaluated by LDH release assay (Beyotime, Beijing, China).

[8] = test system: R28 cells; assay: Intracellular ROS, H2DCF-DA staining after OGD; format: cell-based; conditions: 20 µM, 24 h before OGD, CLSM
Experimental: R28 cells were seeded at a density of 1 × 10^5 mL^−1 cells in 35‐mm glass‐bottom Petri dishes and incubated overnight. Before OGD injury, the cells were treated with Rh‐GFFYE, rhein, Nap‐GFFYE, or Ac‐GFFYE at a concentration of 20 µM for 24 h. The OGD‐injured cells were then assayed for intracellular ROS production by H2DCF‐DA staining. Briefly, the cells were treated with 10 µM H2DCF‐DA for 30 min in the cell culture incubator. To remove the unincorporated dye, the cells were washed with PBS and the oxidation of H2DCF‐DA was detected by CLSM.

[9] = test system: bone marrow‐derived macrophages (BMDMs); assay: LPS-induced cytokine release, ELISA; format: cell-based, mouse; conditions: 20 µM, LPS 100 ng/mL, 24 h
Experimental: The isolation of mouse BMDMs was performed according to the method of Pineda‐Torra et al.^[ [57] ^] Briefly, the femurs and tibias of C57BL/6 mice were carefully separated and transferred into PBS containing 10% penicillin/streptomycin. The BMDMs were flushed out with a syringe and filtered through a 70‐µm strainer. To further purify the BMDMs, lysis buffer was added to remove the red blood cells. The BMDMs were cultured in a DMEM medium containing macrophage colony‐stimulating factor (MCE, Monmouth Junction, NJ, USA).
BMDMs (1 × 10^5 mL^−1 cells in a volume of 1 mL per well in a 24‐well plate) were pretreated with Rh‐GFFYE, rhein, Nap‐GFFYE, and Ac‐GFFYE at a concentration of 20 µM for 1 h prior to the addition of LPS (100 ng mL^−1) for the specified times (6, 24, and 48 h). The supernatants were collected, and the concentrations of IL‐1β and IL‐6 in the culture medium were measured using ELISA kits (Beyotime, Beijing, China) according to the manufacturer's instructions.

[10] = test system: R28 cells; assay: Mitochondrial membrane potential, JC-1 staining after OGD; format: cell-based; conditions: 20 µM, 24 h prior to OGD; JC-1, CLSM
Experimental: A mitochondrial membrane potential assay kit with JC‐1 (Beyotime, Beijing, China) was used to monitor the changes in the mitochondrial membrane potential of R28 cells subjected to OGD following the procedure recommended by the supplier. Briefly, R28 cells were seeded in dishes at a density of 1 × 10^5 mL^−1 cells and cultured overnight. The cells were treated with Rh‐GFFYE, rhein, Nap‐GFFYE, or Ac‐GFFYE at a concentration of 20 µM for 24 h prior to OGD. Following treatment and recovery, the cells were washed three times with PBS and then incubated with 20 µM JC‐1 for 20 min at 37 °C. After removing the JC‐1 staining solution, the cells were washed three times with JC‐1 dyeing buffer, and 2 mL DMEM was added for CLSM imaging.

[11] = test system: rat model of RIR injury; assay: Rat RIR injury model, H&E staining of the retina; format: in vivo; conditions: intravitreal 4 µL, 20 µM final in vitreous, 24 h after RIR; 7 days; n = 6
Experimental: (§2) Erythromycin eye ointment was used to prevent bacterial infection.
The changes in retinal morphology caused by RIR injury were visualized by H&E staining. At 7 days after the intravitreal injection of Rh‐GFFYE, the eyeballs were removed and then fixed in 4% paraformaldehyde. The eye tissue was then embedded in paraffin, and 4‐µm‐thick slices were prepared. The H&E staining procedure described previously was followed.^[ [59] ^]

[12] = test system: rat model of RIR injury; assay: Rat RIR injury model, immunofluorescence of RGC markers (BRN3A, β‐III‐TUBULIN); format: in vivo; conditions: 7 d after intravitreal injection; n = 6
Experimental: as §2
The RIR‐injured rats were euthanized at 7 days after the intravitreal injection of Rh‐GFFYE. Immediately after removal, the eyeball was fixed in 4% paraformaldehyde for 2 h at 4 °C, dehydrated overnight in 30% sucrose solution, embedded in an optimal cutting temperature compound embedding bottom box (17 × 17 × 5 mm), and stored at −80 °C. Slices with thicknesses of 8 µm were created using a frozen slicer at −22 °C. The slices were placed on adhesive slides and dried at room temperature for >30 min before proceeding to the next step. For immunofluorescent staining, the retinal sections were permeabilized with enhanced immunostaining permeabilization buffer (Beyotime, Beijing, China) for 20 min, blocked with blocking buffer (Beyotime, Beijing, China), and incubated overnight at 4 °C with the following primary antibodies: anti‐β‐III‐TUBULIN, anti‐IBA1, anti‐GFAP, anti‐BRN3A (Abcam, UK), anti‐CD86, and anti‐CD206 (Cell Signaling Technology, Danvers, MA, USA). After rinsing three times with PBS, the sections were incubated with secondary antibodies at room temperature for 2 h, rinsed three times with PBS, and counterstained with DAPI. Sealed with a cover glass, the slides were then observed by CLSM.

[13] = 7 days after intravitreal injection, n = 6
[14] = day 7 after single intravitreal injection of Rh-GFFYE, retina homogenate

| Molecule | morphology of the retina (H&E) ([1]; 7 d after intravitreal injection) | retinal function (ERG) of normal rats ([1]; 7 d after intravitreal injection, vs normal group, n = 6) | serum content of alanine aminotransferase (ALT) [1, 13] | serum content of aspartate aminotransferase (AST) [1, 13] | histological structures of main visceral organs (heart, liver, spleen, lung, kidney) ([1]; H&E, 7 days after intravitreal injection) | uptake in ischemic retina compared with control non‐ischemic eyes [2] | amplitudes of the oscillatory potentials (OPs) [3] | scotopic ERG a and b wave amplitudes [3] | concentration of rhein in retina at 21 d relative to day 7 ([4]; 21 d after single intravitreal injection) | concentration of rhein in the ischemic retina [4, 14] | concentration of rhein in the normal retina [4, 14] | toxicity on R28 cells (ATP and LDH levels) [5] | concentration at which rhein self‐assembles into a translucent hydrogel [6] | recovery of cell viability (ATP content) under OGD [7] | intracellular ROS level under OGD [8] | anti‐inflammatory effect (release of IL‐1β and IL‐6) [9] | mitochondrial membrane potential (ΔΨm) under OGD [10] | IPL thickness after RIR injury [11] | number of RGCs (BRN3A positive) compared with Saline group [12] |
| --- | --- | --- | --- | --- | --- | --- | --- | --- | --- | --- | --- | --- | --- | --- | --- | --- | --- | --- | --- |
| O=C(O)CC[C@H](NC(=O)[C@H](Cc1ccc(O)cc1)NC(=O)[C@H](Cc1ccccc1)NC(=O)[C@H](Cc1ccccc1)NC(=O)CNC(=O)c1cc(O)c2c(c1)C(=O)c1cccc(O)c1C2=O)C(=O)O [Rh‐GFFYE] (X1-GFFYE-OH) | no significant change | not significantly changed | did not show intergroup differences | did not show intergroup differences | did not induce noticeable histological changes | increased | recovered | significant recovery | approximately one‐quarter of that at day 7 | 27.1 ng/g | 15.2 ng/g | no toxic effect |  |  |  |  |  |  |  |
| O=C(O)c1cc(O)c2c(c1)C(=O)c1cccc(O)c1C2=O [rhein, 4,5‐dihydroxyanthraquinone‐2‐carboxylic acid] |  |  |  |  |  |  |  |  |  |  |  |  | 14100 µM | no restorative effect | significant ROS inhibition | reduced the release of these two inflammatory cytokines to some extent | recovered |  |  |
| Nap‐GFFYE [control peptide compound in which rhein is replaced with 1‐naphthylacetic acid (Nap)] |  |  |  |  |  |  |  |  |  |  |  |  |  | no restorative effect |  | did not show anti‐inflammatory effects | no recovery | did not ameliorate | No significant differences |
